Data taken from ChEMBL document CHEMBL3046556, “Microwave-assisted synthesis and antimicrobial screening of new imidazole derivatives bearing 4-thiazolidinone nucleus” (2013).
≈ marks a conversion by molar mass, not a printed value. Calls of active or inactive are those of the source. The rule behind the calls is not given here.

How the values were obtained:
Aspergillus clavatus [1] = assay: Antifungal activity against Aspergillus clavatus MTCC 1323 assessed as growth inhibition after 48 hr by broth dilution method; assay type: functional; settings: MTCC 1323, 48 h
Aspergillus niger [2] = assay: Antifungal activity against Aspergillus niger MTCC 282 assessed as growth inhibition after 48 hr by broth dilution method; assay type: functional; settings: MTCC 282, 48 h
Candida albicans [3] = assay: Antifungal activity against Candida albicans MTCC 227 assessed as growth inhibition after 48 hr by broth dilution method; assay type: functional; settings: MTCC 227, 48 h
Streptococcus pyogenes [4] = assay: Antibacterial activity against Streptococcus pyogenes MTCC 442 assessed as growth inhibition after 24 hr by NCCLS broth dilution method; assay type: functional; settings: MTCC 442, 24 h
Staphylococcus aureus [5] = assay: Antibacterial activity against Staphylococcus aureus MTCC 96 assessed as growth inhibition after 24 hr by NCCLS broth dilution method; assay type: functional; settings: MTCC 96, 24 h
Pseudomonas aeruginosa [6] = assay: Antibacterial activity against Pseudomonas aeruginosa MTCC 1688 assessed as growth inhibition after 24 hr by NCCLS broth dilution method; assay type: functional; settings: MTCC 1688, 24 h
Escherichia coli [7] = assay: Antibacterial activity against Escherichia coli MTCC 443 assessed as growth inhibition after 24 hr by NCCLS broth dilution method; assay type: functional; settings: MTCC 443, 24 h
Streptococcus pyogenes [8] = assay: Antibacterial activity against Streptococcus pyogenes MTCC 442 assessed as growth inhibition at 12.5 to 1000 ug/mL after 24 hr by NCCLS broth dilution method; assay type: functional, organism-based
Staphylococcus aureus [9] = assay: Antibacterial activity against Staphylococcus aureus MTCC 96 assessed as growth inhibition at 12.5 to 1000 ug/mL after 24 hr by NCCLS broth dilution method; assay type: functional, organism-based
Pseudomonas aeruginosa [10] = assay: Antibacterial activity against Pseudomonas aeruginosa MTCC 1688 assessed as growth inhibition at 12.5 to 1000 ug/mL after 24 hr by NCCLS broth dilution method; assay type: functional, organism-based
Escherichia coli [11] = assay: Antibacterial activity against Escherichia coli MTCC 443 assessed as growth inhibition at 12.5 to 1000 ug/mL after 24 hr by NCCLS broth dilution method; assay type: functional, organism-based
Aspergillus niger [12] = assay: Antifungal activity against Aspergillus niger MTCC 282 assessed as growth inhibition at 12.5 to 1000 ug/mL after 48 hr by broth dilution method; assay type: functional, organism-based
Aspergillus clavatus [13] = assay: Antifungal activity against Aspergillus clavatus MTCC 1323 assessed as growth inhibition at 12.5 to 1000 ug/mL after 48 hr by broth dilution method; assay type: functional, organism-based
Candida albicans [14] = assay: Antifungal activity against Candida albicans MTCC 227 assessed as growth inhibition at 12.5 to 1000 ug/mL after 48 hr by broth dilution method; assay type: functional, organism-based

| SMILES | MIC (Aspergillus clavatus [1]) | MIC (Aspergillus niger [2]) | MIC (Candida albicans [3]) | MIC (Streptococcus pyogenes [4]) | MIC (Staphylococcus aureus [5]) | MIC (Pseudomonas aeruginosa [6]) | MIC (Escherichia coli [7]) | growth inhibition (GI) (Streptococcus pyogenes [8]) | growth inhibition (GI) (Staphylococcus aureus [9]) | growth inhibition (GI) (Pseudomonas aeruginosa [10]) | growth inhibition (GI) (Escherichia coli [11]) | growth inhibition (GI) (Aspergillus niger [12]) | growth inhibition (GI) (Aspergillus clavatus [13]) | growth inhibition (GI) (Candida albicans [14]) |
| --- | --- | --- | --- | --- | --- | --- | --- | --- | --- | --- | --- | --- | --- | --- |
| CC1=N/C(=C\c2ccc(C)cc2)C(=O)N1c1ccc(/C(C)=N/N=C2/NC(=O)CS2)cc1 | 50 µg/mL (≈ 116 µM) | 12.5 µg/mL (≈ 29 µM) | 250 µg/mL (≈ 579 µM) | 25 µg/mL (≈ 57.9 µM) | 12.5 µg/mL (≈ 29 µM) | 250 µg/mL (≈ 579 µM) | 50 µg/mL (≈ 116 µM) |  |  |  |  |  |  |  |
| COC1=CC(=O)C[C@@H](C)[C@]12Oc1c(Cl)c(OC)cc(OC)c1C2=O [GRISEOFULVIN] | 100 µg/mL (≈ 283 µM) | 100 µg/mL (≈ 283 µM) | 500 µg/mL (≈ 1420 µM) |  |  |  |  |  |  |  |  |  |  |  |
| CC1=N/C(=C\c2ccc(F)cc2)C(=O)N1c1ccc(/C(C)=N/N=C2/NC(=O)CS2)cc1 | 500 µg/mL (≈ 1150 µM) | 500 µg/mL (≈ 1150 µM) | 500 µg/mL (≈ 1150 µM) | 500 µg/mL (≈ 1150 µM) | 100 µg/mL (≈ 230 µM) | 250 µg/mL (≈ 574 µM) | 250 µg/mL (≈ 574 µM) |  |  |  |  |  |  |  |
| COc1ccccc1/C=C1\N=C(C)N(c2ccc(/C(C)=N/N=C3/NC(=O)CS3)cc2)C1=O | 25 µg/mL (≈ 55.9 µM) | 100 µg/mL (≈ 223 µM) | 500 µg/mL (≈ 1120 µM) | 100 µg/mL (≈ 223 µM) | 50 µg/mL (≈ 112 µM) | 50 µg/mL (≈ 112 µM) | 250 µg/mL (≈ 559 µM) |  |  |  |  |  |  |  |
| CC(=O)c1ccc(N2C(=O)/C(=C\c3ccccc3O)N=C2C)cc1 | 1000 µg/mL (≈ 3120 µM) |  | 1000 µg/mL (≈ 3120 µM) |  |  |  |  | inactive | inactive | inactive | inactive |  |  |  |
| CC(=O)c1ccc(N2C(=O)/C(=C\c3ccc(O)cc3)N=C2C)cc1 | 1000 µg/mL (≈ 3120 µM) |  | 1000 µg/mL (≈ 3120 µM) |  | 1000 µg/mL (≈ 3120 µM) |  | 1000 µg/mL (≈ 3120 µM) | inactive |  | inactive |  | inactive |  |  |
| CC(=O)c1ccc(N2C(=O)/C(=C\c3ccc(C)cc3)N=C2C)cc1 | 250 µg/mL (≈ 785 µM) | 250 µg/mL (≈ 785 µM) |  |  | 1000 µg/mL (≈ 3140 µM) |  | 1000 µg/mL (≈ 3140 µM) | inactive |  | inactive |  |  | inactive | inactive |
| COc1ccc(/C=C2\N=C(C)N(c3ccc(/C(C)=N/N=C4/NC(=O)CS4)cc3)C2=O)cc1 | 250 µg/mL (≈ 559 µM) | 250 µg/mL (≈ 559 µM) | 500 µg/mL (≈ 1120 µM) | 50 µg/mL (≈ 112 µM) | 500 µg/mL (≈ 1120 µM) | 100 µg/mL (≈ 223 µM) | 250 µg/mL (≈ 559 µM) |  |  |  |  |  |  |  |
| CC1=N/C(=C\c2ccccc2[N+](=O)[O-])C(=O)N1c1ccc(/C(C)=N/N=C2/NC(=O)CS2)cc1 | 500 µg/mL (≈ 1080 µM) | 500 µg/mL (≈ 1080 µM) | 500 µg/mL (≈ 1080 µM) | 100 µg/mL (≈ 216 µM) | 250 µg/mL (≈ 541 µM) | 500 µg/mL (≈ 1080 µM) | 100 µg/mL (≈ 216 µM) |  |  |  |  |  |  |  |
| CC1=N/C(=C\c2ccccc2Cl)C(=O)N1c1ccc(/C(C)=N/N=C2/NC(=O)CS2)cc1 | 1000 µg/mL (≈ 2210 µM) | 1000 µg/mL (≈ 2210 µM) | 1000 µg/mL (≈ 2210 µM) | 250 µg/mL (≈ 553 µM) | 500 µg/mL (≈ 1110 µM) | 100 µg/mL (≈ 221 µM) | 500 µg/mL (≈ 1110 µM) |  |  |  |  |  |  |  |
| COc1ccccc1/C=C1/N=C(C)N(c2ccc(C(C)=O)cc2)C1=O | 250 µg/mL (≈ 748 µM) | 250 µg/mL (≈ 748 µM) |  |  |  |  |  | inactive | inactive | inactive | inactive |  | inactive | inactive |
| CC1=N/C(=C\c2ccccc2C)C(=O)N1c1ccc(/C(C)=N/N=C2/NC(=O)CS2)cc1 | 250 µg/mL (≈ 579 µM) | 100 µg/mL (≈ 232 µM) | 500 µg/mL (≈ 1160 µM) | 25 µg/mL (≈ 57.9 µM) | 25 µg/mL (≈ 57.9 µM) | 250 µg/mL (≈ 579 µM) | 250 µg/mL (≈ 579 µM) |  |  |  |  |  |  |  |
| CC1=N/C(=C\c2ccc([N+](=O)[O-])cc2)C(=O)N1c1ccc(/C(C)=N/N=C2/NC(=O)CS2)cc1 | 100 µg/mL (≈ 216 µM) | 250 µg/mL (≈ 541 µM) | 500 µg/mL (≈ 1080 µM) | 250 µg/mL (≈ 541 µM) | 250 µg/mL (≈ 541 µM) | 100 µg/mL (≈ 216 µM) | 500 µg/mL (≈ 1080 µM) |  |  |  |  |  |  |  |
| CC1=N/C(=C\c2ccccc2F)C(=O)N1c1ccc(/C(C)=N/N=C2/NC(=O)CS2)cc1 | 500 µg/mL (≈ 1150 µM) | 500 µg/mL (≈ 1150 µM) | 1000 µg/mL (≈ 2300 µM) | 100 µg/mL (≈ 230 µM) | 500 µg/mL (≈ 1150 µM) | 500 µg/mL (≈ 1150 µM) | 250 µg/mL (≈ 574 µM) |  |  |  |  |  |  |  |

More lines, main results first:

| MIC (Aspergillus clavatus [1]) | MIC (Aspergillus niger [2]) | MIC (Candida albicans [3]) | MIC (Streptococcus pyogenes [4]) | MIC (Staphylococcus aureus [5]) | MIC (Pseudomonas aeruginosa [6]) | MIC (Escherichia coli [7]) | SMILES | growth inhibition (GI) (Streptococcus pyogenes [8]) | growth inhibition (GI) (Staphylococcus aureus [9]) | growth inhibition (GI) (Pseudomonas aeruginosa [10]) | growth inhibition (GI) (Escherichia coli [11]) | growth inhibition (GI) (Aspergillus niger [12]) | growth inhibition (GI) (Aspergillus clavatus [13]) | growth inhibition (GI) (Candida albicans [14]) |
| --- | --- | --- | --- | --- | --- | --- | --- | --- | --- | --- | --- | --- | --- | --- |
| 500 µg/mL (≈ 1200 µM) | 500 µg/mL (≈ 1200 µM) | 1000 µg/mL (≈ 2400 µM) | 1000 µg/mL (≈ 2400 µM) | 250 µg/mL (≈ 599 µM) | 500 µg/mL (≈ 1200 µM) | 1000 µg/mL (≈ 2400 µM) | CC1=N/C(=C\c2ccccc2)C(=O)N1c1ccc(/C(C)=N/N=C2/NC(=O)CS2)cc1 |  |  |  |  |  |  |  |
| 100 µg/mL (≈ 231 µM) | 50 µg/mL (≈ 115 µM) | 50 µg/mL (≈ 115 µM) | 50 µg/mL (≈ 115 µM) | 50 µg/mL (≈ 115 µM) | 100 µg/mL (≈ 231 µM) | 50 µg/mL (≈ 115 µM) | CC1=N/C(=C\c2ccc(O)cc2)C(=O)N1c1ccc(/C(C)=N/N=C2/NC(=O)CS2)cc1 |  |  |  |  |  |  |  |
| 100 µg/mL (≈ 232 µM) | 250 µg/mL (≈ 579 µM) | 500 µg/mL (≈ 1160 µM) | 100 µg/mL (≈ 232 µM) | 100 µg/mL (≈ 232 µM) | 250 µg/mL (≈ 579 µM) | 500 µg/mL (≈ 1160 µM) | CC1=N/C(=C\c2cccc(C)c2)C(=O)N1c1ccc(/C(C)=N/N=C2/NC(=O)CS2)cc1 |  |  |  |  |  |  |  |
| 250 µg/mL (≈ 553 µM) | 500 µg/mL (≈ 1110 µM) | 500 µg/mL (≈ 1110 µM) | 100 µg/mL (≈ 221 µM) | 250 µg/mL (≈ 553 µM) | 250 µg/mL (≈ 553 µM) | 1000 µg/mL (≈ 2210 µM) | CC1=N/C(=C\c2ccc(Cl)cc2)C(=O)N1c1ccc(/C(C)=N/N=C2/NC(=O)CS2)cc1 |  |  |  |  |  |  |  |
| 250 µg/mL (≈ 577 µM) | 250 µg/mL (≈ 577 µM) | 500 µg/mL (≈ 1150 µM) | 250 µg/mL (≈ 577 µM) | 100 µg/mL (≈ 231 µM) | 250 µg/mL (≈ 577 µM) | 250 µg/mL (≈ 577 µM) | CC1=N/C(=C\c2cccc(O)c2)C(=O)N1c1ccc(/C(C)=N/N=C2/NC(=O)CS2)cc1 |  |  |  |  |  |  |  |
| 100 µg/mL (≈ 231 µM) | 50 µg/mL (≈ 115 µM) | 100 µg/mL (≈ 231 µM) | 100 µg/mL (≈ 231 µM) | 250 µg/mL (≈ 577 µM) | 25 µg/mL (≈ 57.7 µM) | 100 µg/mL (≈ 231 µM) | CC1=N/C(=C\c2ccccc2O)C(=O)N1c1ccc(/C(C)=N/N=C2/NC(=O)CS2)cc1 |  |  |  |  |  |  |  |
